One assay has as its target JAK3 (Homo sapiens (Human), UniProt P52333). Briefly: Jak Biochemical HTRF Assay (JAK3). The conditions noted are these: recombinant GST-tagged catalytic domain, [ATP] 2.9 μM. A general note: In TR-FRET formats the signal depends on donor and acceptor labels being close together.
A further assay has as its target JAK2 (Homo sapiens (Human), UniProt O60674). Briefly: Jak Biochemical HTRF Assay (JAK2). The conditions noted are these: recombinant GST-tagged catalytic domain, [ATP] 8.5 μM.

SMILES strings stand for the structures. Some results are limits rather than exact numbers.

Chain of JAK2 (O60674 849-1124): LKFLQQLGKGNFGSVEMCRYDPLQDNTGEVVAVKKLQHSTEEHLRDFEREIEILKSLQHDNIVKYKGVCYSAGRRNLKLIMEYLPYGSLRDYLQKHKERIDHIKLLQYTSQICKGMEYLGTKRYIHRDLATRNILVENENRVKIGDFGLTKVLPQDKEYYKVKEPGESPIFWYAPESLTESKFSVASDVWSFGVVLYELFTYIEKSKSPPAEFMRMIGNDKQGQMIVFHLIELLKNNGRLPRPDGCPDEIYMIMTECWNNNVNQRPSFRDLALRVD
Chain of JAK3 (P52333 822-1111): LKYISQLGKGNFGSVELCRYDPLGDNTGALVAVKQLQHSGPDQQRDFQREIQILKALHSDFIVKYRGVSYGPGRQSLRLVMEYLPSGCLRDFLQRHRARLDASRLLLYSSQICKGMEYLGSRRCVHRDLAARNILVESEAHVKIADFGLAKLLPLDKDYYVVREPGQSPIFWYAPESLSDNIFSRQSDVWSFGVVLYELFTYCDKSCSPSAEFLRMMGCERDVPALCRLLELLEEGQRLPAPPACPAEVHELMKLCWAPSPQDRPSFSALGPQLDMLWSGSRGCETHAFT

As a reminder, the IC50 is the concentration that gives 50% inhibition. Turning to `CCOC(=O)c1c[nH]c2ncnc(-c3cccc(NC(=O)NCC#N)c3)c12` [Example 9-1, Ethyl 4-(3-(3-(cyanomethyl)ureido)phenyl)-7H-pyrrolo[2,3-d]pyrimidine-5-carboxylate], the IC50 is 10 to 500 nM at JAK3 (given as range class) and greater than 500 nM on JAK2 (given as range class).
Taken in the same sequence, the figures for `CCOC(=O)c1c[nH]c2ncnc(-c3cccc(NC(=O)NC#N)c3)c12` [Example 9-2, ethyl 4-(3-(3-cyanoureido)phenyl)-7H-pyrrolo[2,3-d]pyrimidine-5-carboxylate] were 10 to 500 nM and 10 to 500 nM.
With `C=CS(=O)(=O)Nc1cccc(-c2ncnc3[nH]cc(C(=O)OCC)c23)c1` [Example 10-1, Ethyl 4-{3-[(ethenylsulfonyl)amino]phenyl}-7H-pyrrolo[2,3-d]pyrimidine-5-carboxylate], the IC50 is 0.037 nM at JAK3 and greater than 1500 nM on JAK2.
Turning to `C/C=C/S(=O)(=O)Nc1cccc(-c2ncnc3[nH]cc(C(=O)OCC)c23)c1` [Example 10-2, ethyl 4-(3-{[(1E)-prop-1-en-1-ylsulfonyl]amino}phenyl)-7H-pyrrolo[2,3-d]pyrimidine-5-carboxylate], the IC50 on JAK3 is 8.2 nM; on JAK2, greater than 1500 nM.
Consider `C=C(C)S(=O)(=O)Nc1cccc(-c2ncnc3[nH]cc(C(=O)OCC)c23)c1` [Example 10-3, ethyl 4-(3-{[(1-methylethenyl)sulfonyl]amino}phenyl)-7H-pyrrolo[2,3-d]pyrimidine-5-carboxylate], for which the IC50 on JAK3 (given as range class) is 10 to 500 nM; at JAK2 (given as range class), greater than 500 nM.
For the molecule `C=C(C)C(=O)Nc1cc(-c2ncnc3[nH]cc(C(=O)OC)c23)ccc1F` [Example 11-1, Methyl 4-{4-fluoro-3-[(2-methylacryloyl)amino]phenyl}-7H-pyrrolo[2,3-d]pyrimidine-5-carboxylate], the IC50 at JAK3 was 0.4 nM; at JAK2, greater than 1500 nM.
The matching figures for `C=C(C)C(=O)Nc1cccc(-c2ncnc3[nH]cc(C(=O)OC)c23)c1` [Example 11-2, methyl 4-{3-[(2-methylacryloyl)amino]phenyl}-7H-pyrrolo[2,3-d]pyrimidine-5-carboxylate]: 2 nM and greater than 1500 nM.
Taken in the same sequence, the figures for `C=CC(=O)N(C)c1cccc(-c2ncnc3[nH]cc(C(=O)OCC)c23)c1` [Example 12-1, Ethyl 4-(3-(N-methylacrylamido)phenyl)-7H-pyrrolo[2,3-d]pyrimidine-5-carboxylate] were 0.13 nM and greater than 1500 nM.
The matching figures for `C=C(CNS(C)(=O)=O)C(=O)Nc1cccc(-c2ncnc3[nH]cc(C(=O)OCC)c23)c1` [Example 13-1, Ethyl 4-(3-(2-(methylsulfonamidomethyl)acrylamido)phenyl)-7H-pyrrolo[2,3-d]pyrimidine-5-carboxylate]: 0.052 nM and greater than 1500 nM.
On to `C=C(CN)C(=O)Nc1cccc(-c2ncnc3[nH]cc(C(=O)OCC)c23)c1` [Example 13-2, Ethyl 4-(3-(2-(aminomethyl)acrylamido)phenyl)-7H-pyrrolo[2,3-d]pyrimidine-5-carboxylate], for which the IC50 was less than 10 nM on JAK3 (given as range class) and greater than 1500 nM on JAK2.
As to `C=C(CNC(C)=O)C(=O)Nc1cccc(-c2ncnc3[nH]cc(C(=O)OCC)c23)c1` [Example 13-3, ethyl 4-(3-(2-(acetamidomethyl)acrylamido)phenyl)-7H-pyrrolo[2,3-d]pyrimidine-5-carboxylate], the IC50 on JAK3 (given as range class) is less than 10 nM; at JAK2, greater than 1500 nM.
Turning to `C=C(CN(C)C)C(=O)Nc1cccc(-c2ncnc3[nH]cc(C(=O)OCC)c23)c1` [Example 14, Ethyl-4-[3-({2-[(dimethylamino)methyl]acryloyl}amino)phenyl]-7H-pyrrolo[2,3-d]pyrimidine-5-carboxylate], the IC50 was 0.066 nM at JAK3 and greater than 1500 nM on JAK2.
The matching figures for `C=C(CF)C(=O)Nc1cccc(-c2ncnc3[nH]cc(C(=O)OCC)c23)c1` [Example 15-1, Ethyl-4-(3-{[2-(fluoromethyl)acryloyl]amino}phenyl)-7H-pyrrolo[2,3-d]pyrimidine-5-carboxylate]: 0.024 nM and greater than 1500 nM.
The matching figures for `C=C(CO)C(=O)Nc1cccc(-c2ncnc3[nH]cc(C(=O)OCC)c23)c1` [Example 15-2, Ethyl-4-(3-{[2-(hydroxymethyl)acryloyl]amino}phenyl)-7H-pyrrolo[2,3-d]pyrimidine-5-carboxylate]: 0.02 nM and greater than 1500 nM.
The matching figures for `CCOC(=O)c1c[nH]c2ncnc(-c3cccc(NC(=O)/C=C/CN(C)C)c3)c12` [Example 16, Ethyl-4-(3-{[(2E)-4-(dimethylamino)but-2-enoyl]amino}phenyl)-7H-pyrrolo[2,3-d]-pyrimidine-5-carboxylate]: 0.2 nM and greater than 1500 nM.
Take `CCOC(=O)c1c[nH]c2ncnc(-c3cccc(NC(=O)/C(C)=C/CN(C)C)c3)c12` [Example 17, Ethyl 4-(3-{[(2E)-4-(dimethylamino)-2-methylbut-2-enoyl]amino}phenyl)-7H-pyrrolo[2,3-d]pyrimidine-5-carboxylate]: the IC50 was 6.6 nM on JAK3 and greater than 1500 nM on JAK2.
The matching figures for `CCOC(=O)c1c[nH]c2ncnc(-c3cccc(NC(=O)C4(C)CO4)c3)c12` (stereo not shown) [Example 18-1, Ethyl-4-(3-(2-methyloxirane-2-carboxamido)phenyl)-7H-pyrrolo[2,3-d]pyrimidine-5-carboxylate]: 0.056 nM and greater than 1500 nM.
With `CCOC(=O)c1c[nH]c2ncnc(-c3cccc(NC(=O)C(C)(O)CO)c3)c12` (stereo not shown) [Example 18-2, Ethyl-4-(3-(2,3-dihydroxy-2-methylpropanamido)phenyl)-7H-pyrrolo[2,3-d]pyrimidine-5-carboxylate], the half-inhibitory concentration (IC50) was 10 to 500 nM on JAK3 (given as range class) and greater than 500 nM at JAK2 (given as range class).
Turning to `C=C(C)C(=O)Nc1cccc(-c2ncnc3[nH]cc(-c4ccc(CN)cc4)c23)c1` [Example 19, N-(3-{5-[4-(Aminomethyl)phenyl]-7H-pyrrolo[2,3-d]pyrimidin-4-yl}phenyl)-2-methylprop-2-enamide], the results for the half-inhibitory concentration (IC50) on JAK3 (given as range class) and at JAK2 (given as range class) were 10 to 500 nM and greater than 500 nM, respectively.
`C=C(C)C(=O)Nc1cccc(-c2ncnc3[nH]cc(-c4cccc(C)c4)c23)c1` [Example 20-1, 2-Methyl-N-{3-[5-(3-methylphenyl)-7H-pyrrolo[2,3-d]pyrimidin-4-yl]phenyl}prop-2-enamide]: the values for the IC50 on JAK3 and on JAK2 were 0.17 nM and greater than 1500 nM, respectively.
In the case of `C=C(C)C(=O)Nc1cccc(-c2ncnc3[nH]cc(-c4cccc(F)c4)c23)c1` [Example 20-2, N-{3-[5-(3-fluorophenyl)-7H-pyrrolo[2,3-d]pyrimidin-4-yl]phenyl}-2-methylprop-2-enamide], the IC50 is 0.59 nM at JAK3 and greater than 1500 nM at JAK2.
The matching figures for `C=C(C)C(=O)Nc1cccc(-c2ncnc3[nH]cc(-c4ccccc4F)c23)c1` [Example 20-3, N-{3-[5-(2-fluorophenyl)-7H-pyrrolo[2,3-d]pyrimidin-4-yl]phenyl}-2-methylprop-2-enamide]: 0.96 nM and greater than 1500 nM.
On to `C=C(C)C(=O)Nc1cccc(-c2ncnc3[nH]cc(-c4ccc(F)cc4)c23)c1` [Example 20-4, N-{3-[5-(4-fluorophenyl)-7H-pyrrolo[2,3-d]pyrimidin-4-yl]phenyl}-2-methylprop-2-enamide], for which the results for the IC50 at JAK3 and at JAK2 were 1.5 nM and greater than 1500 nM, respectively.
Turning to `C=C(C)C(=O)Nc1cccc(-c2ncnc3[nH]cc(-c4cccc(F)c4Cl)c23)c1` [Example 20-5, N-{3-[5-(2-chloro-3-fluorophenyl)-7H-pyrrolo[2,3-d]pyrimidin-4-yl]phenyl}-2-methylprop-2-enamide], the IC50 was 1.5 nM on JAK3 and greater than 1500 nM on JAK2.
The matching figures for `C=C(C)C(=O)Nc1cccc(-c2ncnc3[nH]cc(-c4ccccc4C)c23)c1` [Example 20-6, 2-methyl-N-{3-[5-(2-methylphenyl)-7H-pyrrolo[2,3-d]pyrimidin-4-yl]phenyll}prop-2-enamide]: 5.2 nM and greater than 1500 nM.
The matching figures for `C=C(C)C(=O)Nc1cccc(-c2ncnc3[nH]cc(-c4ccc(C)cc4)c23)c1` [Example 20-7, 2-methyl-N-{3-[5-(4-methylphenyl)-7H-pyrrolo[2,3-d]pyrimidin-4-yl]phenyl}prop-2-enamide]: 5.4 nM and greater than 1500 nM.
With `C=C(C)C(=O)Nc1cccc(-c2ncnc3[nH]cc(-c4c(C)cc(C)cc4C)c23)c1` [Example 20-8, 2-methyl-N-{3-[5-(2,4,6-trimethylphenyl)-7H-pyrrolo[2,3-d]pyrimidin-4-yl]phenyll}prop-2-enamide], the figures for the IC50 on JAK3 (given as range class) and at JAK2 (given as range class) were 10 to 500 nM and greater than 500 nM, respectively.
As for `C=CC(=O)Nc1cccc(-c2ncnc3[nH]cc(-c4ccccc4)c23)c1` [Example 20-9, N-[3-(5-phenyl-7H-pyrrolo[2,3-d]pyrimidin-4-yl)phenyl]prop-2-enamide], the IC50 on JAK3 was 0.016 nM; at JAK2 it was greater than 1500 nM.
Turning to `C=C(C)C(=O)Nc1cccc(-c2ncnc3[nH]cc(-c4ccccn4)c23)c1` [Example 21-1, N-(3-(5-(Pyridin-2-yl)-7H-pyrrolo[2,3-d]pyrimidin-4-yl)phenyl)methacrylamide], the IC50 on JAK3 (given as range class) is 10 to 500 nM; at JAK2 (given as range class), greater than 500 nM.
Turning to `C=C(C)C(=O)Nc1cccc(-c2ncnc3[nH]cc(-c4cnc[nH]4)c23)c1` [Example 21-2, N-(3-(5-(1H-imidazol-5-yl)-7H-pyrrolo[2,3-d]pyrimidin-4-yl)phenyl)methacrylamide], the IC50 at JAK3 was 7.5 nM; on JAK2, greater than 1500 nM.
Turning to `C=C(C)C(=O)Nc1cccc(-c2ncnc3[nH]cc(-c4ccncc4)c23)c1` [Example 21-3, N-(3-(5-(pyridin-4-yl)-7H-pyrrolo[2,3-d]pyrimidin-4-yl)phenyl)methacrylamide], the half-maximal inhibitory concentration (IC50) on JAK3 (given as range class) is 10 to 500 nM; at JAK2 (given as range class), greater than 500 nM.
Take `C=C(C)C(=O)Nc1cccc(-c2ncnc3[nH]cc(-c4cccnc4)c23)c1` [Example 21-4, N-(3-(5-(pyridin-3-yl)-7H-pyrrolo[2,3-d]pyrimidin-4-yl)phenyl)methacrylamide]: the IC50 on JAK3 was 9.7 nM; on JAK2, greater than 1500 nM.
